Measurements taken from patent US8883180B2 (priority 2007, dated 2014).
Like-named read-outs stand apart in the source and are kept apart here.

Key:
Type in all cases: in vivo
[1] = system: larvae of the fall army worm (Spodoptera frugiperda); assay: Spodoptera frugiperda - test (sprayed cabbage leaves); settings: mortality
Protocol: (§1) Solvent: 7 parts by weight of dimethylformamide
(§2) Emulsifier: 2 parts by weight of alkylaryl polyglycolether
(§3) To produce a suitable preparation of active compound, 1 part by weight of active compound is mixed with the stated amount of solvent and emulsifier, and the concentrate is diluted with emulsifier-containing water to the desired concentration.
Cabbage leaves (Brassica oleracea) are treated by being sprayed into the preparation of the active compound of the desired concentration and are infested with larvae of the fall army worm (Spodoptera frugiperda) as long as the leaves are still moist.
After the specified period of time, the mortality in % is determined. 100% means that all the caterpillars have been killed; 0% means that none of the caterpillars have been killed.

[2] = system: rice blast (Pyricularia oryzae); settings: 100 ppm, inoculated 5 days after spraying, evaluated 7 days after inoculation
[3] = system: larvae of the mustard beetle (Phaedon cochleariae); assay: Phaedon cochleariae - test (sprayed cabbage leaves); settings: for Efficacy in % after 3d: Table C-1, mortality; for Efficacy in % after 4d: Table C-2, mortality; for Efficacy in % after 6d: Table C-3, mortality
Protocol: as §1, §2, §3
Cabbage leaves (Brassica oleracea) are treated by being sprayed with the preparation of the active compound at the desired concentration and are infested with larvae of the mustard beetle (Phaedon cochleariae) as long as the leaves are still moist.
After the specified period of time, the mortality in % is determined. 100% means that all the beetle larvae have been killed; 0% means that none of the beetle larvae have been killed.

[4] = system: Blumeria graminis f. sp. hordei; assay: Blumeria test (barley)/SAR 5d; settings: 1000 ppm, evaluated 7 days after inoculation
[5] = system: rice blast (Pyricularia oryzae); settings: 20 ppm, inoculated 1 day after spraying, evaluated 5 days after inoculation
[6] = system: larvae of the Brown plant hopper (Nilaparvata lugens); assay: Nilaparvata lugens - test (sprayed rice plants); settings: mortality
Protocol: as §1, §2, §3
Rice plants (Oryza sativa) are treated by being sprayed with the preparation of the active compound at the desired concentration and are infested with larvae of the Brown plant hopper (Nilaparvata lugens) as long as the leaves are still moist.
After the specified period of time, the mortality in % is determined. 100% means that all the hopper larvae have been killed; 0% means that none of the hopper larvae have been killed.

Row | Structure (SMILES) | Efficacy in % [2] [%] | Efficacy in % after 4d ([3]; 4 ppm) [%] | Efficacy in % ([4]; Table A-1, 1st leaf) [%] | Efficacy in % ([4]; Table A-2, printed 1st leaf) [%] | Efficacy in % [5] [%] | Efficacy in % after 3d ([6]; 4 ppm) [%] | other results
1 | C/C(=N\C#N)N(C)Cc1ccc(Cl)nc1 [Acetamiprid, acetamiprid] | – | – | – | – | – | – | Efficacy in % after 6d ([1]; 0.16 ppm): 15%
2 | CNC(=O)c1cc(Cl)cc(C)c1NC(=O)c1cc(Br)nn1-c1ncccc1Cl [Chlorantraniliprole, chlorantraniliprole] | 0 | 70 | 11 | 0 | 0 | 0 | Efficacy in % after 3d ([3]; 0.16 ppm): 0%; Efficacy in % after 4d ([3]; 0.8 ppm): 45%; Efficacy in % after 6d ([3]; 0.8 ppm): 15%; Efficacy in % after 6d ([1]; 0.032 ppm): 15%
3 | CN/C(=N\[N+](=O)[O-])NCc1cnc(Cl)s1 [Clothianidin, clothianidin] | – | – | – | – | – | 90 | Efficacy in % after 4d ([3]; 20 ppm): 70%; Efficacy in % after 6d ([3]; 4 ppm): 90%
4 | O=[N+]([O-])NC1=NCCN1Cc1ccc(Cl)nc1 [Imidacloprid, imidacloprid] | 0 | – | – | – | 0 | – | Efficacy in % after 3d ([3]; 4 ppm): 0%
5 | N#Cc1ccccc1NC(=O)c1snc(Cl)c1Cl [Isotianil, 3,4-dichloro-N-(2-cyanophenyl)-5-isothiazolecarboxamide] | 43 | – | 44 | 44 | 35 | – | Efficacy in % after 3d ([3]; 200 ppm): 0%; Efficacy in % after 4d ([3]; 200 ppm): 15%; Efficacy in % after 6d ([3]; 200 ppm): 0%; Efficacy in % after 6d ([1]; 200 ppm): 0%; Efficacy in % after 3d ([6]; 200 ppm): 0%
6 | N#C/N=C1\SCCN1Cc1ccc(Cl)nc1 [Thiacloprid, thiacloprid] | – | 45 | – | – | – | – | –
